According to PubChem BioAssay (NCI):
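1) Cells in 96-well plates. 2) Compound, 48 h, 5 concentrations. 3) Linear interpolation between surrounding doses. 4) Unreached endpoint = highest concentration. GI50: concentration for 50% inhibition of growth. TGI is the concentration that stops growth completely.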

Tests used:
Test in all cases: DTP human tumour cell line panel, 48 h
[1] = system: 786-0 renal
[2] = system: ACHN renal
[3] = system: HOP-62 NSCLC
[4] = system: KM12 colon
[5] = system: KM20L2 colon
[6] = system: LXFL 529 NSCLC
[7] = system: NCI-H460 lung
[8] = system: SK-OV-3 ovarian
[9] = system: SW-620 colon
[10] = system: OVCAR-5 ovarian

SMILES	TGI [1] [µM]	TGI [2] [µM]	TGI [3] [µM]	TGI [4] [µM]	TGI [5] [µM]	TGI [6] [µM]	TGI [7] [µM]	TGI [8] [µM]	TGI [9] [µM]	GI50 [1] [µM]	GI50 [2] [µM]	GI50 [3] [µM]	GI50 [4] [µM]	GI50 [7] [µM]	GI50 [10] [µM]	TGI [10] [µM]	GI50 [8] [µM]	GI50 [9] [µM]
CC(=O)N(CCN1C(=O)c2ccccc2C1=O)CCN1C(=O)c2ccccc2C1=O	> 100	> 100	> 100	> 100	> 100	> 100	> 100	> 100	> 100									
CCOc1cc(/C=C/C(=O)C(C(=O)/C=C/c2ccc(OC(=O)CNc3nnc(C)s3)c(OCC)c2)C(=O)CNc2nnc(C)s2)ccc1OC(=O)CNc1nnc(C)s1	5.98	3.42	11.8	2.94			4.54	18.2	2.74	2.16	1.77	3.52	1.3	1.97	2.43	5.41	4.15	1.18
NS(=O)(=O)c1ccc(N=C2C(=O)Nc3ccccc32)cc1	> 100	> 100	> 100	> 100			> 100	> 100	> 100							> 100		
COc1ccc(C2CC(c3ccc4ccccc4c3)=NN2c2nc(O)c(C3=c4cc(OC)ccc4=NC3=O)s2)cc1 (stereo not given)	0.0869	0.419	0.158	0.286			0.0473	0.431	0.0658	0.028	0.0678	0.0633	0.0856	0.0226	0.115	1.35	0.13	0.0249
COc1ncc(-c2ccc3nccc(C#CCN4CCN(S(C)(=O)=O)CC4)c3c2)cc1NS(=O)(=O)c1ccc(F)cc1F	3.56	3.39	5.56	1.55			4.71	0.168	2.23	0.0522	0.05	< 0.0159	0.293	0.049	0.0207	5.72	0.0175	0.205
O=C(Nc1ccc(I)cc1)c1cccc([N+](=O)[O-])c1O	24.2	> 100	> 100	> 100			> 100	44.9	> 100	3.53	4.16	6.93	4.05	3.86	18.1	> 100	3.05	4.44
O=[N+]([O-])c1ccc(/C(Cl)=C/c2ccc(/C=C(\Cl)c3ccc([N+](=O)[O-])cc3[N+](=O)[O-])cc2)c([N+](=O)[O-])c1	> 100	> 100	> 100			> 100	> 100	> 100	> 100							> 100		
FC(F)(F)c1ccc(-c2ncc(-c3ccc(C(F)(F)F)cc3)c(NCc3cc(C(F)(F)F)cc(C(F)(F)F)c3)n2)cc1	> 100	> 100	> 100	63.2			79.4	55.2	> 100	3.87	3.91	5.16	4.3	3.72	6.02	> 100	7.03	3.95
